Where two headings read alike, the source gives them in different places.
Assays:
GSK3β = GSK3β (Homo sapiens, UniProt P49841); assay: GSK3β kinase assay (Caliper LabChip3000, fluoresceinated peptide substrate); format: biochemical
Method: (§1) The kinase assay was performed in V-bottom 384-well plates. […] The reaction was incubated at room temperature for 20 hours and terminated by adding 45 μl of 35 mM EDTA to each sample. The reaction mixture was analyzed on the Caliper LabChip3000 (Caliper, Hopkinton, Mass.) by electrophoretic separation of the unphosphorylated substrate and phosphorylated product. […] Compounds were dissolved at 10 mM in dimethylsulfoxide (DMSO) and evaluated at eleven concentrations. IC50 values were derived by non-linear regression analysis.

GSK3α = GSK3α (Homo sapiens, UniProt P49840); assay: biochemical
Chain of GSK3α (P49840 whole entry, species assumed): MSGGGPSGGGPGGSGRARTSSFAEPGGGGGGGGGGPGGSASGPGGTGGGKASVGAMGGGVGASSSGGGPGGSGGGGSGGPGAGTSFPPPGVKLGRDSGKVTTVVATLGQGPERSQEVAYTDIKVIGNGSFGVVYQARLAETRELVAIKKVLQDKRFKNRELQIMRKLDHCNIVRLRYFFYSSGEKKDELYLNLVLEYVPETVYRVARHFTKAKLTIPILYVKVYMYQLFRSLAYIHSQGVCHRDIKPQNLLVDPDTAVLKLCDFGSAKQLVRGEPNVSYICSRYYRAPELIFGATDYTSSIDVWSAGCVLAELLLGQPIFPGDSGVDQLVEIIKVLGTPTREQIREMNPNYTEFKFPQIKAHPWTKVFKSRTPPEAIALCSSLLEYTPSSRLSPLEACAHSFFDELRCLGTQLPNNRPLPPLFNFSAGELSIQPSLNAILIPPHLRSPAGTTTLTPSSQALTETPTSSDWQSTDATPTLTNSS
Method: as §1

pTau = pTau assay (method not described); format: cell-based
[1] = first value of the cell, 250 pM enzyme, 20 uM ATP, 20 hours at room temperature, read-out: GSK3β/α (nM): GSK3β IC50
[2] = second value of the cell, 250 pM enzyme, 20 uM ATP, 20 hours at room temperature, read-out: GSK3β/α (nM): GSK3α IC50
[3] = read-out: GSK3β/α (nM): GSK3β IC50, first value of the cell, 250 pM enzyme, 20 uM ATP, 20 hours at room temperature
[4] = read-out: GSK3β/α (nM): GSK3α IC50, second value of the cell, 250 pM enzyme, 20 uM ATP, 20 hours at room temperature

Chain of GSK3β (P49841 whole entry, species assumed): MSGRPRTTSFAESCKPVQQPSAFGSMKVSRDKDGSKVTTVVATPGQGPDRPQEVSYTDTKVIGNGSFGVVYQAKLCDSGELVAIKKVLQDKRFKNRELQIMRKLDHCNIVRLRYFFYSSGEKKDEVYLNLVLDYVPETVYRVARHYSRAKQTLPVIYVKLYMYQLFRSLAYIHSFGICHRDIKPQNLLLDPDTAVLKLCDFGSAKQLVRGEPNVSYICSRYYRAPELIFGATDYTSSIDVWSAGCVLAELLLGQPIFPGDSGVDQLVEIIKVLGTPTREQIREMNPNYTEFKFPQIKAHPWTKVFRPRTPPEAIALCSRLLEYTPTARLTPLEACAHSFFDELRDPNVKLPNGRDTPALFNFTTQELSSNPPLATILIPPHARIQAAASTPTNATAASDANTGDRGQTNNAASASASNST

IC50 (GSK3β; [1]) | IC50 (GSK3α; [2]) | IC50 (pTau; read-out: pTau) | IC50 (GSK3α) | IC50 (pTau; read-out: pTau (nM)) | IC50 (GSK3β; [3]) | IC50 (GSK3α; [4]) | Structure (SMILES) | IC50 (GSK3β)
1.8 nM | 24 nM | 4500 nM | – | – | – | – | O=C(Nc1cnccc1-c1ccccc1)c1ccnc(NC(=O)[C@@H]2C[C@H]2c2ccccc2)c1 (relative stereo) [Example 99, 2-((Trans)-2-phenylcyclopropanecarboxamido)-N-(4-phenylpyridin-3-yl)isonicotinamide] | –
– | – | 37 nM | – | – | 1.7 nM | 1.3 nM | O=C(Nc1cnccc1-c1ccc(Cl)cc1)c1ccnc(NC(=O)C2CC(F)C2)c1 (single isomer, unassigned) [Example 222, N-(4-(4-chlorophenyl)pyridin-3-yl)-2-((1,3-trans)-3-fluorocyclobutanecarboxamido)isonicotinamide] | –
– | – | 150 nM | – | – | 6.9 nM | 3.1 nM | O=C(Nc1cnccc1-c1ccc(Cl)cc1)c1ccnc(NC(=O)C2CC(F)C2)c1 (single isomer, unassigned) [Example 223, N-(4-(4-chlorophenyl)pyridin-3-yl)-2-((1,3-cis)-3-fluorocyclobutanecarboxamido)isonicotinamide] | –
370 nM | 180 nM | 7200 nM | – | – | – | – | CC(=O)Nc1ccc(NC(=O)c2ccnc(NC(=O)C3CC3)c2)cn1 [Example 4, N-(6-Acetamidopyridin-3-yl)-2-(cyclopropanecarboxamido)isonicotinamide] | –
570 nM | 230 nM | ≥ 10000 nM | – | – | – | – | O=C(Nc1cnc2ccccc2c1)c1ccnc(NC(=O)C2CC2)c1 [Example 5, 2-(Cyclopropanecarboxamido)-N-(quinolin-3-yl)isonicotinamide] | –
7.2 nM | 2.7 nM | 190 nM | – | – | – | – | O=C(Nc1cncc2ccccc12)c1ccnc(NC(=O)C2CC2)c1 [Example 6, 2-(Cyclopropanecarboxamido)-N-(isoquinolin-4-yl)isonicotinamide] | –
48 nM | 24 nM | 1800 nM | – | – | – | – | Cc1cc(NC(=O)c2ccnc(NC(=O)C3CC3)c2)cnc1F [Example 8, 2-(Cyclopropanecarboxamido)-N-(6-fluoro-5-methylpyridin-3-yl)isonicotinamide] | –
16 nM | 64 nM | 1800 nM | – | – | – | – | O=C(Nc1ccc(-c2ccccc2)nc1)c1ccnc(NC(=O)C2CC2)c1 [Example 10, 2-(Cyclopropanecarboxamido)-N-(6-phenylpyridin-3-yl)isonicotinamide] | –
30 nM | 15 nM | 2200 nM | – | – | – | – | Cc1ccc(NC(=O)c2ccnc(NC(=O)C3CC3)c2)cn1 [Example 11, 2-(Cyclopropanecarboxamido)-N-(6-methylpyridin-3-yl)isonicotinamide] | –
33 nM | 16 nM | 1400 nM | – | – | – | – | O=C(Nc1cncc(F)c1)c1ccnc(NC(=O)C2CC2)c1 [Example 12, 2-(Cyclopropanecarboxamido)-N-(5-fluoropyridin-3-yl)isonicotinamide] | –
13 nM | 7.3 nM | 550 nM | – | – | – | – | COc1cncc(NC(=O)c2ccnc(NC(=O)C3CC3)c2)c1 [Example 13, 2-(Cyclopropanecarboxamido)-N-(5-methoxypyridin-3-yl)isonicotinamide] | –
16 nM | 11 nM | 610 nM | – | – | – | – | O=C(Nc1cncc(Br)c1)c1ccnc(NC(=O)C2CC2)c1 [Example 15, 2-(Cyclopropanecarboxamido)-N-(5-bromopyridin-3-yl)isonicotinamide] | –
– | – | – | 0.2 nM | 2.8 nM | – | – | CC(C)(O)c1ccncc1NC(=O)c1ccnc(NC(=O)C2CC2)c1 [Example 16, 2-(Cyclopropanecarboxamido)-N-(4-(2-hydroxypropan-2-yl)pyridin-3-yl)isonicotinamide] | 0.11 nM
1.4 nM | 0.96 nM | 35 nM | – | – | – | – | O=C(Nc1cnccc1I)c1ccnc(NC(=O)C2CC2)c1 [Example 19, 2-(Cyclopropanecarboxamido)-N-(4-iodopyridin-3-yl)isonicotinamide] | –
7.1 nM | 2.4 nM | 250 nM | – | – | – | – | O=C(Nc1cncc(C2CC2)c1)c1ccnc(NC(=O)C2CC2)c1 [Example 22, 2-(Cyclopropanecarboxamido)-N-(5-cyclopropylpyridin-3-yl)isonicotinamide] | –
– | – | – | 2.4 nM | 48 nM | – | – | O=C(Nc1cnccc1C(O)C(F)(F)F)c1ccnc(NC(=O)C2CC2)c1 (stereo not drawn) [Example 23, 2-(Cyclopropanecarboxamido)-N-(4-(2,2,2-trifluoro-1-hydroxyethyl)pyridin-3-yl)isonicotinamide] | 5.8 nM
– | – | – | 1.2 nM | 110 nM | – | – | O=C(Nc1cnccc1C(=O)C(F)(F)F)c1ccnc(NC(=O)C2CC2)c1 [Example 24, 2-(Cyclopropanecarboxamido)-N-(4-(2,2,2-trifluoroacetyl)pyridin-3-yl)isonicotinamide] | 0.95 nM
2.8 nM | 0.85 nM | 49 nM | – | – | – | – | Cc1cc(-c2ccncc2NC(=O)c2ccnc(NC(=O)C3CC3)c2)cs1 [Example 43, 2-(Cyclopropanecarboxamido)-N-(4-(5-methylthiophen-3-yl)pyridin-3-yl)isonicotinamide] | –
– | – | – | 0.19 nM | 5.1 nM | – | – | O=C(Nc1cnccc1N1CCC(F)(F)CC1)c1ccnc(NC(=O)C2CC2)c1 [Example 45, 2-(Cyclopropanecarboxamido)-N-(4-(4,4-difluoropiperidin-1-yl)pyridin-3-yl)isonicotinamide] | 0.22 nM
37 nM | 14 nM | 1200 nM | – | – | – | – | O=C(Nc1cnccc1N1CCCCCC1)c1ccnc(NC(=O)C2CC2)c1 [Example 53, N-(4-(azepan-1-yl)pyridin-3-yl)-2-(cyclopropanecarboxamido)isonicotinamide] | –
13 nM | 8.4 nM | 230 nM | – | – | – | – | O=C(Nc1cnccc1-c1ccc(C(F)(F)F)cc1)c1ccnc(NC(=O)C2CC2)c1 [Example 56, 2-(Cyclopropanecarboxamido)-N-(4-(4-(trifluoromethyl)phenyl)pyridin-3-yl)isonicotinamide] | –
78 nM | 70 nM | 8200 nM | – | – | – | – | O=C(Nc1c(-c2ccccc2)ccnc1Cl)c1ccnc(NC(=O)C2CC2)c1 [Example 59, N-(2-chloro-4-phenylpyridin-3-yl)-2-(cyclopropanecarboxamido)isonicotinamide] | –

Structure (SMILES) | IC50 (GSK3β; [1]) | IC50 (GSK3α; [2]) | IC50 (pTau; read-out: pTau) | IC50 (GSK3α) | IC50 (pTau; read-out: pTau (nM)) | IC50 (GSK3β; [3]) | IC50 (GSK3α; [4]) | IC50 (GSK3β)
O=C(Nc1cnccc1-c1ccccc1)c1ccnc(NC(=O)[C@@H]2CC[C@@H](O)C2)c1 (relative stereo) [Example 230, 2-((1,3-Trans)-3-hydroxycyclopentanecarboxamido)-N-(4-phenylpyridin-3-yl)isonicotinamide] | – | – | – | 0.68 nM | 73 nM | – | – | 2.5 nM
C[C@@H]1CN(c2ccncc2NC(=O)c2ccnc(NC(=O)C3CC3)c2)CCO1 (single isomer, unassigned) [Example 77] | – | – | – | 2.7 nM | 220 nM | – | – | 8.8 nM
C[C@H]1CN(c2ccncc2NC(=O)c2ccnc(NC(=O)C3CC3)c2)CCO1 (single isomer, unassigned) [Example 78] | – | – | – | 0.35 nM | 18 nM | – | – | 0.99 nM
Cc1ccncc1NC(=O)c1ccnc(NC(=O)C2CC2)c1 [Example 9, 2-(Cyclopropanecarboxamido)-N-(4-methylpyridin-3-yl)isonicotinamide] | – | 22 nM | 1200 nM | – | – | – | – | 30 nM
CC(=O)c1ccncc1NC(=O)c1ccnc(NC(=O)C2CC2)c1 [Example 14, N-(4-acetylpyridin-3-yl)-2-(cyclopropanecarboxamido)isonicotinamide] | – | 0.54 nM | 76 nM | – | – | – | – | 0.85 nM
CC(O)c1ccncc1NC(=O)c1ccnc(NC(=O)C2CC2)c1 (stereo not drawn) [Example 17, 2-(Cyclopropanecarboxamido)-N-(4-(1-hydroxyethyl)pyridin-3-yl)isonicotinamide] | – | 1.4 nM | 35 nM | – | – | – | – | 0.25 nM
O=C(Nc1cnccc1N1CCOCC1)c1ccnc(NC(=O)C2CC2)c1 [Example 30, 2-(Cyclopropanecarboxamido)-N-(4-morpholinopyridin-3-yl)isonicotinamide] | – | 0.54 nM | 23 nM | – | – | – | – | 1 nM
O=C(Nc1cnccc1C1CCC1)c1ccnc(NC(=O)C2CC2)c1 [Example 41, N-(4-cyclobutylpyridin-3-yl)-2-(cyclopropanecarboxamido)isonicotinamide] | – | 3 nM | 380 nM | – | – | – | – | 7.5 nM
O=C(Nc1cnccc1N1CCCCC1)c1ccnc(NC(=O)C2CC2)c1 [Example 50, 2-(Cyclopropanecarboxamido)-N-(4-(piperidin-1-yl)pyridin-3-yl)isonicotinamide] | – | 0.35 nM | 23 nM | – | – | – | – | 0.99 nM
C[C@@H]1COCCN1c1ccncc1NC(=O)c1ccnc(NC(=O)C2CC2)c1 [Example 52, (R)-2-(cyclopropanecarboxamido)-N-(4-(3-methylmorpholino)pyridin-3-yl)isonicotinamide] | – | 0.21 nM | 12 nM | – | – | – | – | 0.49 nM
C[C@H]1COCCN1c1ccncc1NC(=O)c1ccnc(NC(=O)C2CC2)c1 [Example 54, (S)-2-(cyclopropanecarboxamido)-N-(4-(3-methylmorpholino)pyridin-3-yl)isonicotinamide] | – | 0.07 nM | 2 nM | – | – | – | – | 0.06 nM
